The series is described as follows: gradient 5% acetonitrile 3 min, to 50% in 2 min, to 85% in 15 min, held 3 min, 100 µL/min. Particulars: column: Zorbax Extend-C18 2.1 x 50 mm; eluents: water / acetonitrile, 0.1% formic acid. A digest of the protocol:
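Over 3 months, pure standards in mixtures of ~100 molecules were run by HPLC coupled to a quadrupole time-of-flight mass spectrometer in positive and negative ionization mode. The column was a Zorbax Extend-C18 (2.1 × 50 mm, 1.8 μm) at 100 μL/min, eluted with water and acetonitrile each holding 0.1% formic acid, with 40 μL dead and 900 μL dwell volumes. Retention time was determined from adduct peaks chosen by software and checked manually.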
`CC(C)C(=O)N1CC(c2nc(-c3ccc(F)cc3)no2)C2(CCOCC2)C1` (stereo not drawn) yielded an RP-LC retention time of 857 s.

`COc1ccc(NC(=O)C2CCN(S(=O)(=O)c3cc(C(=O)N4CCCC4)cs3)CC2)cc1` registered an RP-LC retention time of 760 s.

On to `Cn1cc(C(CNC(=O)Nc2ccccc2F)c2cccnc2)c2ccccc21` (stereo not drawn), for which the RP-LC retention time was 682 s.

`Cc1ccc(-c2cc3c(=O)n(Cc4noc(CN5CCc6ccccc65)n4)ccn3n2)cc1` registered an RP-LC retention time of 1100 s.

`CN(C)c1ccc(CCCNS(=O)(=O)c2ccc(Cl)s2)cc1` yielded an RP-LC retention time of 655 s.

Regarding `O=C(CN1CCC(c2nc(-c3cccc(F)c3)no2)CC1)Nc1ccc2c(c1)OCO2`, the RP-LC retention time worked out at 719 s.

Turning to `Cc1cccc(NC(=O)CSc2nccc(N3CCN(c4cc(C)ccc4C)CC3)n2)c1`, the RP-LC retention time is 917 s.

`CC(C)CCC(=O)N1CCC(N2C[C@H](O)C[C@H]2C(N)=O)CC1`: the RP-LC retention time was determined as 571 s.

Take `COCCN1C(=O)Cc2ccccc2C1C(=O)N1CCCCC1` (stereo not drawn): the RP-LC retention time stood at 725 s.

The compound `O=C(NCc1cccc(Cl)c1)C1CCN(c2nnc(-c3ccccc3)o2)CC1` returned an RP-LC retention time of 865 s.

On to `CCC(C)CC(=O)N1CCCN(C2=NS(=O)(=O)C(c3ccc(C)cc3)=C2C)CC1` (stereo not drawn), for which the RP-LC retention time amounted to 900 s.

Take `O=C(Cn1cccc1-c1nc(-c2ccc(Cl)cc2)cs1)N1CCN(c2ccccn2)CC1`: the RP-LC retention time amounted to 772 s.

With `Cc1ccc(Cl)cc1NS(=O)(=O)c1c(C)sc(C)c1-c1cc(C(F)(F)F)on1`, the RP-LC retention time is 1220 s.

Consider `CCCc1cc(N2CCN(C(=O)c3cccc(N(C)C)c3)CC2)nc2nnc(C)n12`, for which the RP-LC retention time worked out at 606 s.

`O=C(Cc1nc(-c2ccccc2)n[nH]1)NC1CCCCC1` had an RP-LC retention time of 714 s.

Compound `O=C(NC1CCCC1)c1cn(-c2cc(-c3nc(C4CC4)no3)ccn2)cn1` had an RP-LC retention time of 867 s.

In the case of `O=C(Nc1ccccc1C(F)(F)F)N1CCN(c2nc3c(F)cc(F)cc3s2)CC1`, the RP-LC retention time is 942 s.

Take `CCc1nc(-c2csc(S(=O)(=O)N3CCC(C(=O)NCc4ccccc4)CC3)c2)no1`: the RP-LC retention time amounted to 702 s.

In turn, `CCn1cnc(S(=O)(=O)N2CCC(C(=O)Nc3cc(OC)cc(OC)c3)CC2)c1` returned an RP-LC retention time of 704 s.

With `O=C(NCc1ccccc1Cl)c1cn2c(n1)COCC2`, the RP-LC retention time amounted to 665 s.

`COC(=O)C1=CN(C2CC2)c2cc(N3CCN(c4ccccn4)CC3)c(F)cc2S1(=O)=O` registered an RP-LC retention time of 637 s.

Compound `O=C(Nc1nccs1)c1cc(Cl)sc1Cl` came in with an RP-LC retention time of 836 s.

`Nc1ccc(-c2nc3nc(N)nc(N)c3nc2-c2ccc(N)cc2)cc1` registered an RP-LC retention time of 596 s.

`CC(C)c1noc(-c2ccnc(-n3cnc(C(=O)N4CCSCC4)c3)c2)n1` had an RP-LC retention time of 863 s.

With `Cc1cc(NS(=O)(=O)c2ccc(F)cc2C)n(C2CCS(=O)(=O)C2)n1` (stereo not drawn), the RP-LC retention time amounted to 753 s.

For the compound `O=C(Nc1ccccc1)C1CCCN(c2cnc3nccnc3c2)C1` (stereo not drawn), the RP-LC retention time is 703 s.

Consider `O=S(=O)(c1ccc2nncn2c1)N(Cc1cccc(F)c1)c1ccc(F)cc1`, for which the RP-LC retention time came out at 857 s.

As to `O=C(Nc1ccc(F)c(C(F)(F)F)c1)C1COCC(=O)N1Cc1ccccc1` (stereo not drawn), the RP-LC retention time was found to be 824 s.

`CCc1cc(N2CCN(C(=O)COc3ccc(F)cc3)CC2)nc2nncn12` showed an RP-LC retention time of 566 s.

`COC(=O)C1=CN(C2CC2)c2cc(N3CCOCC3)c(F)cc2S1(=O)=O`: the RP-LC retention time was 736 s.

In turn, `CCn1c(=O)n(CC)c2cc(S(=O)(=O)c3ccc(C)cc3)c(NC(=O)C3CC3)cc21` registered an RP-LC retention time of 873 s.

In turn, `Cc1ccccc1CC(=O)N1CCC2(CC1)NC(=O)c1ccc(F)cc1N2C` registered an RP-LC retention time of 798 s.

`O=C(CCc1nc2sc3c(c2c(=O)[nH]1)CCCCC3)N1CCN(c2ccccn2)CC1` came in with an RP-LC retention time of 603 s.

Consider `CCN(CC)S(=O)(=O)c1cc(-c2nnc(-c3ccccc3OC)o2)ccc1C`, for which the RP-LC retention time came to 1030 s.

Regarding `O=C(Cn1c(=O)c2cccn2c2ccc(F)cc21)N1CCN(c2ccccn2)CC1`, the RP-LC retention time worked out at 605 s.

As for `CC1=C(c2ccccc2)S(=O)(=O)N=C1N1CCCN(C(=O)CC(C)C)CC1`, the RP-LC retention time was 803 s.

With `O=[N+]([O-])/C=C/c1cc2ccccc2[nH]1`, the RP-LC retention time turned out to be 718 s.

Take `Cc1c(S(=O)(=O)NCc2ccccc2Cl)c(C)n(C)c1-c1nnc(C2CCC2)o1`: the RP-LC retention time was determined as 1000 s.

`O=c1c2cc(-c3ccc(F)cc3)nn2ccn1Cc1ccc(Cl)cc1`: the RP-LC retention time turned out to be 1090 s.

With `O=S(=O)(Cc1ccc(Cl)cc1)c1ccc(N2CCN(c3ccccn3)CC2)nn1`, the RP-LC retention time came out at 654 s.

`Cc1nc(-c2ccccc2)cc2nn(CC(=O)Nc3ccc(F)c(Cl)c3)c(=O)n12` returned an RP-LC retention time of 1010 s.

`COCCNC(=O)c1nc(-c2ccnc(N3CCCCCC3)c2)no1` yielded an RP-LC retention time of 602 s.

Take `CCNC(=O)C1CCCN(c2nc3ncn(CC(=O)Nc4c(C)cc(C)cc4C)c(=O)c3s2)C1` (stereo not drawn): the RP-LC retention time was determined as 715 s.

In turn, `c1ccc(-c2nc3nccc(-c4ccccn4)n3n2)cc1` returned an RP-LC retention time of 820 s.

On to `Cc1sc2cc(C(=O)N(C)C)[nH]c2c1CN1CCCCC1`, for which the RP-LC retention time came to 606 s.

Compound `CO[C@H]1C(=O)N(C(C)C)[C@H]1C1CCN(S(=O)(=O)c2cccnc2)CC1` returned an RP-LC retention time of 700 s.

`CN1CCC(OC2CCN(S(=O)(=O)c3ccccc3F)CC2)CC1`: the RP-LC retention time was 620 s.

Regarding `COc1ccc(-c2noc(CN3C(=O)COc4cc(Cl)ccc43)n2)cc1OC`, the RP-LC retention time was determined as 971 s.

The compound `Cc1ccc(C(=O)N2CCC3(CC2)N=C(c2ccc(Br)cc2)NO3)cc1` came in with an RP-LC retention time of 875 s.

`Cc1ccc(CN2CCC(CNC(=O)Cn3ccc4c(=O)n(C)c(=O)n(C)c43)CC2)cc1` had an RP-LC retention time of 601 s.

Turning to `CCCNC(=O)C1CCCN(c2nc3ncn(CC(=O)Nc4ccc(Cl)cc4)c(=O)c3s2)C1` (stereo not drawn), the RP-LC retention time was found to be 741 s.

`CCCC(=O)N1CCc2c([nH]c3ccccc23)C12C(=O)Nc1ccccc12` (stereo not drawn) registered an RP-LC retention time of 830 s.

In turn, `Cc1ccccc1CNC(=O)C1(C)CCCN(C(=O)Nc2ccc(Cl)cc2)C1` (stereo not drawn) returned an RP-LC retention time of 995 s.

On to `CC(C)C[C@H]1C(=O)N2CCC[C@H]2[C@]2(O)O[C@](NC(=O)[C@@H]3C=C4c5cccc6[nH]c(Br)c(c56)CC4N(C)C3)(C(C)C)C(=O)N12` (stereo partly drawn), for which the RP-LC retention time turned out to be 830 s.

With `CCc1cc(C2CCCN2C(=O)Nc2ccccc2Cl)on1` (stereo not drawn), the RP-LC retention time was 910 s.

`CCOCCCNC(=O)N1CC(Oc2ccc(-c3nc(-c4ccccc4)no3)cc2)C1` came in with an RP-LC retention time of 985 s.

`COCCNC(=O)N1CCC(C(=O)NCC(F)(F)F)CC1` had an RP-LC retention time of 571 s.

Turning to `COc1ccc(CNC(=O)C2CCN(c3nccn4nc(-c5cccs5)cc34)CC2)cc1`, the RP-LC retention time was 754 s.

Compound `O=C(COc1ccc(F)cc1F)Nc1cccc(-c2ccc(N3CCOCC3)nn2)c1` displayed an RP-LC retention time of 660 s.

Consider `CCN1CCC2(CC1)N=C(c1ccc3c(c1)OCO3)CC(c1cc(Br)ccc1O)N2` (stereo not drawn), for which the RP-LC retention time is 634 s.

In the case of `O=S(=O)(Nc1ccc(Cn2cncn2)cc1)c1cccc(Cl)c1`, the RP-LC retention time turned out to be 716 s.

Regarding `O=C(Cn1c(=O)c2cccn2c2ccccc21)NCCCc1ccccc1`, the RP-LC retention time came out at 874 s.

The compound `Cc1c(C(=O)N(C)C)sc2nc(-c3ccccc3)c(NC(C)(C)C)n12` returned an RP-LC retention time of 763 s.

On to `Cc1csc(-c2cc(S(=O)(=O)N3CCOCC3)c(C)n2C)n1`, for which the RP-LC retention time was 824 s.

Turning to `COc1ccc(C(C)NC(=O)Cc2cn(C)c3ncccc23)cc1OC` (stereo not drawn), the RP-LC retention time is 640 s.

`Cc1cccc(-c2cc3n(n2)CCCN(C(=O)Cc2cccc(C(F)(F)F)c2)C3)c1` came in with an RP-LC retention time of 1030 s.

The compound `Cc1ccc(C2CC(=O)c3cnc(Nc4nc(C)c5ccc(C)cc5n4)nc3C2)cc1` (stereo not drawn) showed an RP-LC retention time of 808 s.

Consider `CN1C(=O)C2(CCN(C(=O)c3ccccc3Cl)C2)c2ccccc21` (stereo not drawn), for which the RP-LC retention time was found to be 787 s.

`COc1ccc(OC)c(S(=O)(=O)N2CCC(Cc3nncn3C)C2)c1` (stereo not drawn) returned an RP-LC retention time of 619 s.

`Cc1sc(NC(=O)c2cccs2)nc1-c1ccc2c(c1)NC(=O)CO2`: the RP-LC retention time worked out at 842 s.

On to `Cc1cc(Cl)ccc1N1C(=O)CN(S(C)(=O)=O)CC1(C)C(=O)NCc1ccc(F)cc1` (stereo not drawn), for which the RP-LC retention time came to 888 s.

As for `CCOc1ccc(S(=O)(=O)N2CCCC(C(=O)NCCOC)C2)cc1` (stereo not drawn), the RP-LC retention time is 709 s.

Compound `CCCn1c(=O)sc2cc(S(=O)(=O)N3CCC(C(=O)Nc4ccccc4OC)CC3)ccc21` yielded an RP-LC retention time of 1000 s.

The compound `COc1cccc(S(=O)(=O)N2CCC(Cc3nncn3C)CC2)c1` showed an RP-LC retention time of 641 s.

In turn, `Cc1ccc(NS(=O)(=O)c2cc3n(c2)CCCNC3=O)cc1F` showed an RP-LC retention time of 669 s.

Compound `CC1(C)CC(=O)C2=C(C1)N(CCCN1CCOCC1)C(=O)C2(NC(=O)c1ccccc1)C(F)(F)F` (stereo not drawn) registered an RP-LC retention time of 634 s.

In turn, `COc1cccc(C2Cn3nnc(-c4nc(-c5ccc(Br)cc5)no4)c3CO2)c1` (stereo not drawn) displayed an RP-LC retention time of 1240 s.

The compound `O=C(Nc1ccc(C2(C(=O)N3CCN(c4ccccn4)CC3)CCC2)cc1)C1CC1` returned an RP-LC retention time of 614 s.
